The values below come from patent US20230322767A1, “ARYL SUBSTITUTED PYRROLO-PYRIDINONES AND THERAPEUTIC USES THEREOF” (Bayer Aktiengesellschaft, priority 2020, published 2023).

pIC50: −log10 of the molar value. Values joined by “and” are separate entries in the source; they are usually repeats but may differ in a detail not shown here. Equal values may be shown once.

wild-type Epidermal Growth Factor Receptor (EGFR), sequence (P00533 669-1210): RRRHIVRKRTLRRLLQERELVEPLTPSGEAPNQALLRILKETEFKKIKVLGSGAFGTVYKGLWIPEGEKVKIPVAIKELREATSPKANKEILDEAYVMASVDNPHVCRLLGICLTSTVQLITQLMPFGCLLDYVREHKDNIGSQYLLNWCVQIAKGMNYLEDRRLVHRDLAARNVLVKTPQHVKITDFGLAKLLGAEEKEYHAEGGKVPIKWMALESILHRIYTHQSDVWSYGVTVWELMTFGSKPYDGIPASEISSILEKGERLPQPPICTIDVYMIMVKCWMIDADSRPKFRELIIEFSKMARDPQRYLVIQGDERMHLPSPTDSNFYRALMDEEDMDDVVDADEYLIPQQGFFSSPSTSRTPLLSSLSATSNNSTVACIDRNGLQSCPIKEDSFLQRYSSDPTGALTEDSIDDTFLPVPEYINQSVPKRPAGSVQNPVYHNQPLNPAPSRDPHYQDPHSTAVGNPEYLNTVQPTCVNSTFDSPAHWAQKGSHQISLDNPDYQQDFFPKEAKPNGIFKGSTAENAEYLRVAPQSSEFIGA

The target of the first experiment is wild-type Epidermal Growth Factor Receptor (EGFR) (Homo sapiens (Human), UniProt P00533). Nature of the experiment: WT-EGFR Kinase Assay (TR-FRET, 2 mM ATP). It is filed as biochemical. The conditions noted are these: EGFR Wildtyp 2 mM ATP IC50 [mol/l] (median), median or individual measurements. From the text:
Inhibitory activity of compounds of the present invention against wild-type Epidermal Growth Factor Receptor (EGFR) was quantified employing the TR-FRET based EGFR assay as described in the following paragraphs.
Recombinant fusion protein of N-terminal Glutathion-S-Transferase (GST) and a fragment of human EGFR (amino acids R669 to A1210), expressed in Sf9 insect cells and purified via affinity chromatography using Glutathion Sepharose as described above, was used as kinase. As substrate for the kinase reaction the biotinylated peptide biotin-Ahx-[…] (C-terminus in amide form) was used which can be purchased e.g. form the company Biosynthan GmbH (Berlin-Buch, Germany).
For the assay 50 nl of a 100 fold concentrated solution of the test compound in DMSO was pipetted into either a black low volume 384 well microtiter plate or a black 1536 well microtiter plate (both Greiner Bio-One, Frickenhausen, Germany), 2 μL of a solution of EGFR in aqueous assay buffer [50 mM Hepes pH 7.0, 10 mM MgCl2, 1 mM dithiothreitol, 0.5 mM EGTA, 0.3 mM activated sodium ortho-vanadate, 0.005% (w/v) bovine serum albumin, 0.005% (v/v) Tween-20] were added and the mixture was incubated for 15 min at 22° C. to allow pre-binding of the test compounds to the enzyme before the start of the kinase reaction. […] The concentration of EGFR was adjusted depending of the activity of the enzyme lot and was chosen appropriate to have the assay in the linear range, typical concentration was […]. The reaction was stopped by the addition of 3 μL of a solution of HTRF detection reagents (83.3 nM streptavidine-XL665 [Cisbio Bioassays, Codolet, France] and 1.67 nM PT66-Tb-Cryptate, a terbium-cryptate labelled anti-phospho-tyrosine antibody from Cisbio Bioassays [instead of the PT66-Tb-cryptate PT66-Eu-Chelate from Perkin Elmer can also be used]) in an aqueous EDTA-solution (133.3 mM EDTA, 0.2% (w/v) bovine serum albumin in 50 mM HEPES pH 7.5).
The resulting mixture was incubated 1 h at 22° C. to allow the binding of the biotinylated phosphorylated peptide to the streptavidine-XL665 and the PT66-Tb-Cryptate. Subsequently the amount of phosphorylated substrate was evaluated by measurement of the resonance energy transfer from the PT66-Tb-Cryptate to the streptavidine-XL665. Therefore, the fluorescence emissions at 620 nm and 665 nm after excitation at 337 nm were measured in a HTRF reader, e.g. a Pherastar (BMG Labtechnologies, Offenburg, Germany) or a Viewlux (Perkin-Elmer). The ratio of the emissions at 665 nm and at 622 nm was taken as the measure for the amount of phosphorylated substrate.
(In general: TR-FRET usually uses a lanthanide donor and a delayed reading to cut background.)
`CN1CCc2[nH]c(-c3ccnc(NC(=O)C(CC(F)F)c4ccc(F)cc4)c3)c(-c3cccnc3)c2C1=O` (single isomer, unassigned) [Example 010, 4,4-difluoro-2-(4-fluorophenyl)-N-{4-[5-methyl-4-oxo-3-(pyridin-3-yl)-4,5,6,7-tetrahydro-1H-pyrrolo[3,2-c]pyridin-2-yl]pyridin-2-yl}butanamide] had a pIC50 of less than 4.70.

On to `Cc1cn(C)c(=O)c2c(-c3ccc(F)cc3)c(-c3ccnc(NC(=O)C(CC(F)F)c4ccc(F)cc4)c3)[nH]c12` (single isomer, unassigned; (-)) [Example 035, (-)-4,4-difluoro-2-(4-fluorophenyl)-N-{4-[3-(4-fluorophenyl)-5,7-dimethyl-4-oxo-4,5-dihydro-1H-pyrrolo[3,2-c]pyridin-2-yl]pyridin-2-yl}butanamide], for which the pIC50 was less than 4.70.

In turn, `CN1CC(CC2CC2)c2[nH]c(-c3ccnc(NC(=O)Cc4ccc(F)cc4)c3)c(-c3ccccc3)c2C1=O` (racemic) [Example 055, N-{4-[7-(cyclopropylmethyl)-5-methyl-4-oxo-3-phenyl-4,5,6,7-tetrahydro-1H-pyrrolo[3,2-c]pyridin-2-yl]pyridin-2-yl}-2-(4-fluorophenyl)acetamide] showed a pIC50 of 5.46.

Consider `Cn1cc(CC(F)(F)F)c2[nH]c(-c3ccnc(NC(=O)C(CC(F)F)c4ccc(F)cc4)c3)c(-c3ccccc3)c2c1=O` (single isomer, unassigned; (-)) [Example 019, (-)-4,4-difluoro-2-(4-fluorophenyl)-N-{4-[5-methyl-4-oxo-3-phenyl-7-(2,2,2-trifluoroethyl)-4,5-dihydro-1H-pyrrolo[3,2-c]pyridin-2-yl]pyridin-2-yl}butanamide], for which the pIC50 is less than 4.70.

In turn, `Cc1cn(C)c(=O)c2c(-c3ccccc3)c(-c3ccnc(NC(=O)C(C)c4ccc(F)cc4)c3)[nH]c12` (racemic) [Example 038, N-[4-(5,7-dimethyl-4-oxo-3-phenyl-4,5-dihydro-1H-pyrrolo[3,2-c]pyridin-2-yl)pyridin-2-yl]-2-(4-fluorophenyl)propanamide] gave a pIC50 of less than 4.70.

With `CC(C(=O)Nc1cc(-c2[nH]c3c(c2-c2ccccc2)C(=O)NCC3(C)C)ccn1)c1ccc(F)cc1` (racemic) [Example 046, N-[4-(7,7-dimethyl-4-oxo-3-phenyl-4,5,6,7-tetrahydro-1H-pyrrolo[3,2-c]pyridin-2-yl)pyridin-2-yl]-2-(4-fluorophenyl)propanamide], the pIC50 is less than 4.70.

`CN1CCc2[nH]c(-c3ccnc(NC(=O)C(CC(F)F)c4ccc(F)cc4)c3)c(-c3ccccc3)c2C1=O` (racemic) [Example 002, 4,4-difluoro-2-(4-fluorophenyl)-N-[4-(5-methyl-4-oxo-3-phenyl-4,5,6,7-tetrahydro-1H-pyrrolo[3,2-c]pyridin-2-yl)pyridin-2-yl]butanamide] gave a pIC50 of less than 4.70.

In the case of `Cn1ccc2[nH]c(-c3ccnc(NC(=O)C(CC(F)F)c4ccc(F)cc4)c3)c(-c3ccccc3)c2c1=O` (racemic) [Example 006, 4,4-difluoro-2-(4-fluorophenyl)-N-[4-(5-methyl-4-oxo-3-phenyl-4,5-dihydro-1H-pyrrolo[3,2-c]pyridin-2-yl)pyridin-2-yl]butanamide], the pIC50 was less than 4.70.

`CN1CCc2[nH]c(-c3ccnc(NC(=O)C(CC(F)F)c4ccc(F)cc4)c3)c(-c3cccnc3)c2C1=O` (racemic) [Example 009, 4,4-difluoro-2-(4-fluorophenyl)-N-{4-[5-methyl-4-oxo-3-(pyridin-3-yl)-4,5,6,7-tetrahydro-1H-pyrrolo[3,2-c]pyridin-2-yl]pyridin-2-yl}butanamide] had a pIC50 of less than 4.70.

`Cc1cn(C)c(=O)c2c(-c3ccc(F)cc3)c(-c3ccnc(NC(=O)C(C)c4ccc(F)cc4)c3)[nH]c12` (single isomer, unassigned; (-)) [Example 031, (-)-2-(4-fluorophenyl)-N-{4-[3-(4-fluorophenyl)-5,7-dimethyl-4-oxo-4,5-dihydro-1H-pyrrolo[3,2-c]pyridin-2-yl]pyridin-2-yl}propanamide] gave a pIC50 of less than 4.70.

As to `CN1C(=O)c2c([nH]c(-c3ccnc(NC(=O)C(CC(F)F)c4ccc(F)cc4)c3)c2-c2ccccc2)CC12CCC2` (single isomer, unassigned; (+)) [Example 051, (+)-4,4-difluoro-2-(4-fluorophenyl)-N-[4-(5′-methyl-4′-oxo-3′-phenyl-1′,4′,5′,7′-tetrahydrospiro-[cyclobutane-1,6′-pyrrolo[3,2-c]pyridin]-2′-yl)pyridin-2-yl]butanamide], the pIC50 is 5.49.

The IC50 is the midpoint of a concentration-inhibition curve. Regarding `Cn1ccc2[nH]c(-c3ccnc(NC(=O)C(CC(F)F)c4ccc(F)cc4)c3)c(-c3ccccc3)c2c1=O` (single isomer, unassigned) [Example 008, 4,4-difluoro-2-(4-fluorophenyl)-N-[4-(5-methyl-4-oxo-3-phenyl-4,5-dihydro-1H-pyrrolo[3,2-c]pyridin-2-yl)pyridin-2-yl]butanamide], the concentration for half-maximal inhibition (IC50) was 7.82 µM and 7.83 µM and > 20 µM (2×).

Consider `CC(C(=O)Nc1cc(-c2[nH]c3c(CC(F)(F)F)cn(C)c(=O)c3c2-c2ccccc2)ccn1)c1ccc(F)cc1` (single isomer, unassigned; (-)) [Example 016, (-)-2-(4-fluorophenyl)-N-{4-[5-methyl-4-oxo-3-phenyl-7-(2,2,2-trifluoroethyl)-4,5-dihydro-1H-pyrrolo[3,2-c]pyridin-2-yl]pyridin-2-yl}propanamide], for which the pIC50 is less than 4.70.

As to `Cn1cc(CC(F)(F)F)c2[nH]c(-c3ccnc(NC(=O)C(CC(F)F)c4ccc(F)cc4)c3)c(-c3ccccc3)c2c1=O` (racemic) [Example 018, 4,4-difluoro-2-(4-fluorophenyl)-N-{4-[5-methyl-4-oxo-3-phenyl-7-(2,2,2-trifluoroethyl)-4,5-dihydro-1H-pyrrolo[3,2-c]pyridin-2-yl]pyridin-2-yl}butanamide], the pIC50 was less than 4.70.

`CC(C(=O)Nc1cc(-c2[nH]c3c(CC(F)(F)F)cn(C)c(=O)c3c2-c2ccccc2)ccn1)c1ccc(F)cc1` (single isomer, unassigned; (+)) [Example 015, (+)-2-(4-fluorophenyl)-N-{4-[5-methyl-4-oxo-3-phenyl-7-(2,2,2-trifluoroethyl)-4,5-dihydro-1H-pyrrolo[3,2-c]pyridin-2-yl]pyridin-2-yl}propanamide] showed a pIC50 of 5.72.

Staying with this experiment, now noted: read-out: EGFR Wildtyp 2 mM ATP IC50 [mol/l] (median), median or individual measurements.
Regarding `CC1c2[nH]c(-c3ccnc(NC(=O)C(CC(F)F)c4ccc(F)cc4)c3)c(-c3ccccc3)c2C(=O)N(C)C1C` (stereo not drawn) [Example 041], the pIC50 is less than 4.70.

Take `CC(C(=O)Nc1cc(-c2[nH]c3c(c2-c2ccccc2)C(=O)NCC3(C)C)ccn1)c1ccc(F)cc1` (single isomer, unassigned) [Example 048, N-[4-(7,7-dimethyl-4-oxo-3-phenyl-4,5,6,7-tetrahydro-1H-pyrrolo[3,2-c]pyridin-2-yl)pyridin-2-yl]-2-(4-fluorophenyl)propanamide]: the pIC50 is less than 4.70.

Regarding `CC(C(=O)Nc1cc(-c2[nH]c3c(CC(F)(F)F)cn(C)c(=O)c3c2-c2ccc(F)cc2)ccn1)c1ccc(F)cc1` (single isomer, unassigned; (+)) [Example 024, (+)-2-(4-fluorophenyl)-N-{4-[3-(4-fluorophenyl)-5-methyl-4-oxo-7-(2,2,2-trifluoroethyl)-4,5-dihydro-1H-pyrrolo[3,2-c]pyridin-2-yl]pyridin-2-yl}propanamide], the pIC50 is less than 4.70.

Regarding `CC1(C)CNC(=O)c2c1[nH]c(-c1ccnc(NC(=O)Cc3ccc(F)cc3)c1)c2-c1ccccc1` [Example 042, N-[4-(7,7-dimethyl-4-oxo-3-phenyl-4,5,6,7-tetrahydro-1H-pyrrolo[3,2-c]pyridin-2-yl)pyridin-2-yl]-2-(4-fluorophenyl)acetamide], the pIC50 was 5.25.

Take `CC(C(=O)Nc1cc(-c2[nH]c3c(c2-c2ccccc2)C(=O)N(C)C2(CCC2)C3)ccn1)c1ccc(F)cc1` (single isomer, unassigned; (+)) [Example 054, (+)-2-(4-fluorophenyl)-N-[4-(5′-methyl-4′-oxo-3′-phenyl-1′,4′,5′,7′-tetrahydrospiro[cyclobutane-1,6′-pyrrolo[3,2-c]pyridin]-2′-yl)pyridin-2-yl]propanamide]: the pIC50 is less than 4.70.

Turning to `CC1CN(C)C(=O)c2c1[nH]c(-c1ccnc(NC(=O)C(C)c3ccc(F)cc3)c1)c2-c1ccc(F)cc1` (stereo not drawn) [Example 029], the pIC50 is less than 4.70.
